From patent US5424442A, “Water-soluble methine compounds useful in photographic silver halide emulsion containing the same” (Fuji Photo Film Co., Ltd., priority 1990, dated 1995)
Like-named read-outs stand apart in the source and are kept apart here.

Columns and labels:
[1] = Spectral sensitization of photographic silver halide emulsion; parameters: Yellow filter sensitivity (SY) / Red filter sensitivity (SR): scale not given here; details: for Red filter sensitivity (SR): red filter SC-60, 5 seconds exposure; for Red filter sensitivity (SR) / Yellow filter sensitivity (SY): standard point Fog+0.2; for Maximum Sensitization: spectrogram, tungsten light source of 2666° K.; for Yellow filter sensitivity (SY): yellow filter SC-50, 5 seconds exposure; for Spectral sensitization performance (in words): added to emulsion as aqueous solution or aqueous dispersion
Procedure: A silver halide emulsion comprising pure silver bromide and having a cubic crystal form (the area ratio of the plane to the entire surface area of grain being 92%) was prepared and subjected to a sulfur sensitization treatment. The average diameter of silver halide grains contained in the emulsion was 0.68 μm, and 0.74 mol of silver halide per kg of emulsion was contained in the emulsion. One kg of the emulsion was weighed in each of pots. An aqueous solution of each of the compounds of formula (I) indicated in Tables 4 and 5 was added to the pot, and the mixture was mixed with stirring at 40° C. For the purpose of comparison, comparative compounds 1 and 2 wherein counter ion was iodide were dispersed in water and added to respective pots.
Further, 4-hydroxy-6-methyl-1,3,3a,7-tetraazaindene in an amount of 0.1 g/kg of emulsion, sodium salt of 2,4-dichloro-6-hydroxy-1,3,5-triazine in an amount of 0.1 g/kg of emulsion and sodium dodecylbenzenesulfonate in an amount of 0.1 g/kg of emulsion in order were added thereto. The emulsion was then coated on a polyethylene terephthalate film to obtain a photographic material.
Each of these samples was exposed through an optical wedge for 5 seconds by using a yellow filter (SC-50, a product of Fuji Photo Film Co., Ltd.) or a red filter (SC-60, a product of Fuji Photo Film Co., Ltd.) and tungsten light (5400° K.).
A spectrogram was obtained by using a grating spectrograph having a tungsten light source of 2666° K., and the maximum sensitization was measured.
After exposure, the samples were developed at 20° C for 4 minutes by using the following developing solution. The density of each of the developed films was measured by using a densitometer (manufactured by Fuji Photo Film Co., Ltd. Spectral sensitivity, that is, yellow filter sensitivity (SY) or red filter sensitivity (SR), sensitivity (SB) in the sensitive region inherent in silver halide, and fog were determined. Sensitivity was determined when the standard point of optical density was referred to as (Fog+0.2). Composition of Developing Solution […]
Two volumes of water were added thereto to obtain a working solution when used.

[2] = Solubility in solvents (dissolution in incubator, filtration through microfilter, visible absorption); assay type: physicochemical; details: for solubility at 12 h / Water solubility (in words): water; for Solubility in MeOH: 720 min
Text: The solubility of some of the compounds within formula (I) was accurately measured.
The measurement of solubility was made in the following manner.

[3] = Table 3, read-out: Solubility in Water

SMILES | Red filter sensitivity (SR) ([1]; Table 5) | Maximum Sensitization ([1]; Table 5) | Maximum Sensitization ([1]; Table 4) | Yellow filter sensitivity (SY) ([1]; Table 4) | also measured
CCn1c(=CC2=CC(=Cc3sc4ccccc4[n+]3CC)Oc3ccccc32)sc(=C2Sc3ccc(OC)cc3N2C)c1=O [Compound 150] | 905 | 695 nm |  |  | solubility at 12 h [2, 3]: 2100 µg/mL
CCn1c(=CC2=CC(=Cc3sc4cc(C)c(C)cc4[n+]3CC)CC(C)(C)C2)sc(=C2Sc3ccccc3N2C)c1=O [Compound 151] | 1535 | 750 nm |  |  | 
CCn1c(=Cc2oc3ccc(-c4ccccc4)cc3[n+]2CC)sc(=C2Sc3ccccc3N2C)c1=O [Compound 133] |  |  | 520 nm | 1620 | 
CCN1C(=CC=c2sc(=Cc3sc(-c4ccccc4)c(-c4ccccc4)[n+]3CC)n(CC)c2=O)Sc2ccccc21 [Comparative Compound 1, reference compound] |  |  | 638 nm | 100 | Spectral sensitization performance (in words) [1]: the desired spectral sensitivity cannot be obtained; Water solubility (in words) [2]: low solubility in water
C=CCN1C=CC(=CC=c2sc(=Cc3sc4c5ccccc5ccc4[n+]3CC)n(CC=C)c2=O)c2ccccc21 [Compound 100] | 1685 | 715 nm |  |  | 
CCN1C(=CC=c2sc(=Cc3sc(-c4ccccc4)c(-c4ccccc4)[n+]3CC)n(CC)c2=O)Oc2ccccc21 [Compound 88] |  |  | 565 nm | 2085 | 
CCn1c(=Cc2sc3cc(C)c(C)cc3[n+]2CC)sc(=C2Sc3ccc(OC)cc3N2C)c1=O [Compound 111] |  |  | 540 nm | 2085 | 
CCN1C(=CC=c2sc(=Cc3oc4c5ccccc5ccc4[n+]3CC)n(CC)c2=O)Sc2c1ccc1ccccc21 [Compound 86] |  |  | 630 nm | 890 | 
CCCn1c(=Cc2oc3cc(C)c(C)cc3[n+]2CC)sc(=CC=C2C=CN(CC)c3ccccc32)c1=O [Compound 101] | 2270 | 695 nm |  |  | 
CCn1c(=CC2=CC(=Cc3sc4cc(C)c(C)cc4[n+]3CC)CC(C)(C)C2)sc(=C2Sc3ccccc3N2C)c1=O [Comparative Compound 2, reference compound] | 100 | 747 nm |  |  | Spectral sensitization performance (in words) [1]: the desired spectral sensitivity cannot be obtained; Water solubility (in words) [2]: low solubility in water
CCn1c(=CC2=[N+](CC)CCS2)sc(=C2Sc3ccccc3N2C)c1=O [Compound 142] |  |  | 495 nm | 300 | 
CCn1c(=Cc2sc(-c3ccccc3)c(-c3ccccc3)[n+]2CC)sc(=CC=C2N(C)c3ccccc3C2(C)C)c1=O [Compound 91] |  |  | 600 nm | 1730 | 
CCn1c(=Cc2oc3c4ccccc4ccc3[n+]2CC)sc(=C2Sc3ccccc3N2C)c1=O [Compound 134] |  |  | 520 nm | 1350 | Solubility in MeOH ([2]; 37° C., 12 hours, Table 2): > 10000 µg/mL; solubility at 12 h ([2]; H2O, 37° C., 12 hours, Table 2, read-out: Solubility in H2O): 6900 µg/mL
CCN1C(=CC=c2sc(=Cc3sc(-c4ccccc4)c(-c4ccccc4)[n+]3CC)n(CC)c2=O)Sc2ccc3ccccc3c21 [Compound 89] |  |  | 640 nm | 705 | 
CCn1c(=Cc2sc3cc(C)c(C)cc3[n+]2CC)sc(=C2Sc3ccccc3N2C)c1=O [drawing 127, reference compound] |  |  |  |  | Solubility in MeOH ([2]; 37° C., 12 hours, Table 2): 100 µg/mL
CCCn1c(=Cc2sc3ccccc3[n+]2CC)sc(=CC=C2C=Cc3ccccc3N2CC)c1=O [Compound 96] | 3600 | 660 nm |  |  | 
CCn1c(=Cc2oc3c4ccccc4ccc3[n+]2CC)sc(=C2Sc3ccccc3N2C)c1=O [drawing 128, reference compound] |  |  |  |  | Solubility in MeOH ([2]; 37° C., 12 hours, Table 2): 150 µg/mL
CCn1c(=CC2=CC(=Cc3sc4ccccc4[n+]3CC)CC(C)(C)C2)sc(=C2Sc3ccccc3N2C)c1=O [Compound 148] |  |  |  |  | solubility at 12 h [2, 3]: 3200 µg/mL
